Laboratory results reported in ChEMBL document CHEMBL2146452, “Creation of readily accessible and orally active analogue of cortistatin a” (ACS Med Chem Lett, 2012).
Activity calls are given as the source filed them. The rule behind the calls is not given here.

How the values were obtained:
HUVEC = assay: Antiproliferative activity against HUVEC after 72 hrs by WST8 assay; type: functional, cell-based; details: Homo sapiens
[1] = Antiproliferative activity against human KB3-1 cells after 72 hrs by WST8 assay; type: cell-based; details: KB 3-1, 72 h
KB 3-1 = assay: Selectivity index, ratio of IC50 for human KB3-1 cells to IC50 for HUVEC
CCRF S-180 [2] = assay: Antitumor activity against mouse S180 cells xenografted in po dosed ddY mouse assessed as tumor growth inhibition; type: functional, organism-based
K562 = assay: Antiproliferative activity against human K562 cells; type: cell-based
[3] = Antiproliferative activity against mouse Neuro2a cells; type: cell-based; details: N2a
NHDF = assay: Antiproliferative activity against human NHDF cells; type: cell-based
CCRF S-180 [4] = assay: Antitumor activity against mouse S180 cells xenografted in ddY mouse assessed as tumor growth inhibition at >25 mg/kg, po administered QOD for 14 days relative to vehicle-treated control; type: functional
Mus musculus [5] = assay: Toxicity in S180 cells xenografted ddY mouse assessed as body weight loss up to 100 mg/kg, po administered QOD for 14 days relative to vehicle-treated control; type: organism-based, CCRF S-180; set-up: dose 100 mg/kg, route oral; details: in vivo, 336 h
Mus musculus [6] = assay: Toxicity in S180 cells xenografted ddY mouse assessed as diarrhea up to 100 mg/kg, po administered QOD for 14 days; type: organism-based, CCRF S-180; set-up: dose 100 mg/kg, route oral; details: in vivo, 336 h
Mus musculus [7] = assay: Antiangiogenic activity in ddY mouse assessed as inhibition of bFGF-induced capillary formation in matrigel plug measured as hemoglobin level at 5 to 25 mg/kg, po administered QOD for 10 days by Drabkin reagent-based assay; type: functional, organism-based
CCRF S-180 [8] = assay: Antitumor activity against mouse S180 cells xenografted in ddY mouse assessed as tumor growth inhibition at >5 mg/kg, po administered QOD for 14 days relative to vehicle-treated control; type: functional, organism-based

SMILES | IC50 (HUVEC) [µM] | IC50 [1] [µM] | Ratio IC50 (KB 3-1) | growth inhibition (GI) (CCRF S-180 [2]) | IC50 (K562) [µM] | IC50 [3] [µM] | IC50 (NHDF) [µM] | growth inhibition (GI) (CCRF S-180 [4]) [%] | Activity (Mus musculus [5]) | Activity (Mus musculus [6]) | inhibition (Mus musculus [7]) | growth inhibition (GI) (CCRF S-180 [8])
CN(C)c1ccc(/C=C2/CC[C@@]3(C)[C@@H](CC[C@@H]3c3ccc4ccncc4c3)C2)cc1 | 15 | 20 | 1.5 |  |  |  |  |  |  |  |  | 
C[C@]12C=CC3=CC4=C(CCCC4=O)O[C@H]3[C@@H]1CC[C@@H]2c1ccc2ccncc2c1 | 0.1 | 10.5 | >100 | Active | 6 | 10.5 | 10.5 |  |  |  |  | 
C[C@]12CCC3=CC4=C(CCCC4=O)O[C@H]3[C@@H]1CC[C@@H]2c1ccc2ccncc2c1 | 0.035 | 10.5 | >100 |  | 5 | 10.5 | 4 | 90 | Non-toxic | Non-toxic | Active | Active
CN(C)C1CC=C(/C=C2/CC[C@@]3(C)[C@@H](CC[C@@H]3c3ccc4ccncc4c3)C2)CC1 (some centres undefined) | 2 | 18 | 9 |  |  |  |  |  |  |  |  | 
